One series has as its system black cutworm larvae. The series can be described thus: Black cutworm feeding damage on corn shoots and foliage, seed treatment vs soil granular treatment (Reference Example 1). In kind it is in vivo. As to conditions: for Plant Defol. 3 DAI / Plant Defol. 7 DAI / Plant Defol. 10 DAI: rating 1=no damage, 10=complete defoliation. Here is the method:
This example compares the efficacy of seed treatment with lambda-cyhalothrin (CAS #91465-08-6) to soil granular treatments with tefluthrin (CAS #79538-32-2) against feeding damage by black cutworm larvae on shoots and foliage.
(§1) A lambda-cyhalothrin seed treatment formulation was prepared by diluting the WARRIOR® T insecticide (Zeneca Ag Products, Wilmington, Del.), which contains 11.4% lambda-cyhalothrin as the active ingredient, into water as a carrier. This formulation was applied for one minute at room temperature to twenty-five grams of Pioneer corn seed (Cultivar PN3394) in a rotostatic seed treater at a rate of 125 g, 250 g or 500 g active ingredient (Al) to 100 kg seed. The treated seeds were allowed to sit uncapped for four to twenty-four hours before planting.
(§2) Treated and untreated seeds (Pioneer hybrid PN3394) were planted in a soil mix consisting of Dupo silt loam, 30% Perlite, 20% coarse sand (WB-10 grade) in six groups of tubs (20 in. L×15 in. W×8 in. D). Twelve seeds were planted per tub and three tubs were planted for each treatment regimen. Soil applications of FORCE® 3GR, which contains 3% tefluthrin granule as the active ingredient, were used for two sets of tubs containing untreated seeds. The FORCE 3GR was applied either in-furrow or incorporated into a 5 inch band on the soil surface at the time of planting. The tubs were overhead irrigated until the plants were infested with black cutworm larvae.
The rate of application for the FORCE 3GR was reported in units of grams of the active ingredient per hectare (g/ha), while the rate of application of the WARRIOR T to the seeds was reported in units of grams of the active ingredient per 100 kilograms of the seeds (g/100 kg). Although the conversion of one of these units to the other will vary somewhat according to the type of seed that is being used, the size and weight of the seed, and the density of planting that is used—among other things—an approximate conversion for corn seed can be carried out as follows. Assuming a seed application rate of lambda cyhalothrin of, for example, 125 g/100 kg of seed and a planting density of 15 lbs seed/ac, about 14.7 acres can be planted with 100 kg of the seed. This is an effective application rate of about 8.5 g of lambda cyhalthrin per acre. At 2.47 ac/ha, the seed treatment level of 125 g/100 kg is approximately equivalent to a surface banding treatment at about 21 g/ha.
The corn plants were infested at 12 DAP, which corresponds to late growth stage V1 by placing two black cutworm larvae at ¾ instar on the soil surface near the base of the plant. Plants were rated 3, 7 and 10 days after infestation (DAI) for the number of cut plants, as well as damage from leaf feeding. The percent stand reduction due to plant cutting was calculated by dividing the number of cut plants into the number of plants present at infestation. The foliar feeding injury was evaluated using a rating scale of 1=no damage and 10=complete defoliation.

The subject of series [1] is corn plants (Pioneer hybrid PN3394). The series can be described thus: Vigor rating of corn plants before infestation (indication of phytotoxicity). Type of series: in vivo. The settings on record: rating 1=extremely low vigor, 10=highest. Here is the method: as §1, §2
At twelve days after planting (DAP) but before infestation, the overall health of each plant was rated by looking at emergence, height and appearance. This vigor rating gives an indication of any phytotoxicity from the seed or soil treatment. A rating of 1 indicates extremely low vigor while 10 is the highest vigor rating.

For the compound `Cc1c(F)c(F)c(COC(=O)[C@@H]2[C@H](/C=C(\Cl)C(F)(F)F)C2(C)C)c(F)c1F` (racemic) [Tefluthrin, (2,3,5,6-tetrafluoro-4-methylphenyl)-methyl-(1 alpha, 3 alpha)-(Z)-(±)-3-(2-chloro-3,3,3-trifluoro-1-propenyl)-2,2-dimethylcyclopropanecarboxylate], in the series with black cutworm larvae (banded 30 g/ha (FORCE 3GR)), the “% Stand Reduct'n 3 DAI” value is 0.0%. Also, the results for the “Vigor at 12 DAP” value in series [1] (banded 30 g/ha (FORCE 3GR)) and in series [1] (in-furrow 30 g/ha (FORCE 3GR)) were 8.7 and 9.0, respectively.

In the case of `CC1(C)[C@H](C(=O)O[C@H](C#N)c2cccc(Oc3ccccc3)c2)[C@@H]1/C=C(\Cl)C(F)(F)F` [λ-cyhalothrin, [1 alpha(s), 3 alpha(z)]-cyano(3-phenoxyphenyl) methyl-3-(2-chloro-3,3,3-trifluoro-1-propenyl)-2,2-dimethylcyclopropane carboxylate], the entries for the “Plant Defol. 3 DAI” value in the series on black cutworm larvae (seed treatment 125 g/100 kg), with black cutworm larvae (seed treatment 250 g/100 kg) and in the series with black cutworm larvae (seed treatment 500 g/100 kg) were 4.3, 3.7 and 2.0, respectively. In addition, the “Plant Defol. 7 DAI” value turned out to be 5.0 with black cutworm larvae (seed treatment 125 g/100 kg), 2.7 with black cutworm larvae (seed treatment 250 g/100 kg) and 2.3 with black cutworm larvae (seed treatment 500 g/100 kg). The results for the “Plant Defol. 10 DAI” value in the series on black cutworm larvae (seed treatment 125 g/100 kg), in the series with black cutworm larvae (seed treatment 250 g/100 kg) and with black cutworm larvae (seed treatment 500 g/100 kg) were 3.3, 1.7 and 1.0, respectively. Also, the “% Stand Reduct'n 3 DAI” value in the series on black cutworm larvae (seed treatment 250 g/100 kg) was found to be 3.0%; with black cutworm larvae (seed treatment 500 g/100 kg), 0.0%. Also, the “% Stand Reduct'n 7 DAI” value in the series with black cutworm larvae (seed treatment 250 g/100 kg) was 3.0%; in the series on black cutworm larvae (seed treatment 250 g/100 kg, listed as lambda-cyhalothrin), 3%; in the series on black cutworm larvae (seed treatment 500 g/100 kg), 0.0%; with black cutworm larvae (seed treatment 500 g/100 kg, listed as lambda-cyhalothrin), 0%. In addition, the “% Stand Reduct'n 10 DAI” value was 3.0% in the series on black cutworm larvae (seed treatment 250 g/100 kg) and 0.0% with black cutworm larvae (seed treatment 500 g/100 kg). The “protection of corn plants against shoot/foliar feeding damage by black cutworm” value with black cutworm larvae (seed treatment prior to planting) is “significant protection”. Further, the “Vigor at 12 DAP” value was 9.0 in series [1] (seed treatment 125 g/100 kg), 8.3 in series [1] (seed treatment 250 g/100 kg) and 8.3 in series [1] (seed treatment 500 g/100 kg).

(Values after patent publication US8592648B2, “Seed treatment with combinations of pyrethrins/pyrethroids and thiamethoxam” (Monsanto Technology, LLC, priority 2000, dated 2013).)
